Measured values reported in patent US5384412A, “Saccharide intermediates in the formation of the calicheamicin and esperamicin oligosaccharides” (priority 1992, dated 1995).
Where two headings read alike, the source gives them in different places.

Legend:
DNA = conditions: Zein et al., Science, 244:697 (1989), cited from earlier work
duplex DNA = conditions: cited from earlier work
[1] = system: 93 base-pair Sal I - Sph I double-stranded DNA fragment of pBR322; assay: DNase I footprinting of oligosaccharides on labeled DNA fragment; format: binding; conditions: for DNA binding selectivity from footprinting: footprinting studies, O-methyl glycoside; for protection against DNase I cleavage (footprinting): pre-incubated with DNA at 37° C. for 30 minutes, autoradiography
Source text: Footprinting studies the O-methyl glycosides of saccharide Compounds 167a, 100, its C-4 epimer (100a) and a similar compound lacking the iodo group in Ring C, 100b, shown below, were designed to probe these questions.
The oligosaccharides 167a, 100, 100a, and 100b were obtained by chemical synthesis following procedures similar to those discussed before. The 93 base-pair Sal I - Sph I double-stranded DNA fragment of pBR322 was obtained enzymatically and was [5'-^32 P]-labeled on one strand. pBR322 DNA was cleaved at the unique Sal I site, dephosphorylated using calf intestine phosphatase, 5'-^32 P]-phosphorylated using T4 polynucleotide kinase and [g-^32 P ATP (4.5 ^m Ci/pmol), and cleaved again at the unique Sph I site. These precursors generated a 93 base-pair double-stranded fragment, [5'-^32 P]-labeled at the Sal I end, which was purified by gel electrophoresis in a nondenaturing 10 percent polyacrylamide gel and subsequent column chromatography on Sephadex G-25. The oligosaccharides were pre-incubated with the DNA fragment at 37° C. for 30 minutes and DNase I was added to cleave the DNA and generate footprinting patterns by autoradiography.
The degree of protection against DNase I digestion offered by both the natural and unnatural stereoisomers was determined by comparing the amount of radioactivity in adjacent lanes along the electrophoresis gel. The protected regions coincided only roughly with calicheamicin γ1^I recognition sequences [(a) Zein et al., Science, 240:1198 (1988); (b) Zein et al., Science, 244:697 (1989); (c) Ding et al., J. Am. Chem. Soc., 113:6617 (1991)], Schreiber [Hawley et al., Proc. Natl. Acad. Sci. U.S.A., 86:1105 (1989)] and observed calicheamicin γ1^I cleavage sites.

Row | Molecule | sequence specificity of DNA cleaving (DNA) | protection against DNase I cleavage (footprinting) [1] | also measured
1 | CCN[C@H]1CO[C@@H](O[C@H]2[C@H](O[C@H]3C#CC=CC#C[C@@]4(O)CC(=O)C(NC(=O)OC)=C3/C4=C\CSSSC)O[C@H](C)[C@@H](NO[C@H]3C[C@H](O)[C@H](SC(=O)c4c(C)c(I)c(O[C@@H]5O[C@@H](C)[C@H](O)[C@@H](OC)[C@H]5O)c(OC)c4OC)[C@@H](C)O3)[C@@H]2O)C[C@@H]1OC (stereo in doubt) [calicheamicin γ1^I, reference compound] | double DNA strand cuts at specific sequences |  | DNA binding site (duplex DNA; double stranded DNA minor groove): anchors itself on the 5' side of a TCCT sequence
2 | CCN[C@H]1CO[C@@H](O[C@H]2[C@H](OC)O[C@H](C)[C@@H](NO[C@H]3C[C@H](O)[C@H](SC(=O)c4c(C)c(I)c(O[C@@H]5O[C@@H](C)[C@H](O)[C@@H](OC)[C@H]5O)c(OC)c4OC)[C@@H](C)O3)[C@@H]2O)C[C@@H]1OC [Compound 100] |  | concentration-dependent protection, presumably due to binding, in the region of three calicheamicin γ1^I binding sites: CTCT, TCCT and AGGA | interaction with duplex DNA (duplex DNA; previous studies by the Ellestad, Schreiber, Kahne and Danishefsky groups): selective interactions of the calicheamicin γ1^I oligosaccharide with duplex DNA along specific sequences within the minor groove; DNA binding selectivity from footprinting [1]: selective binding of oligosaccharide Compound 100 with specific base sequences of DNA; DNA binding selectivity from footprinting ([1]; listed as calicheamicin oligosaccharide glycoside): binds specifically to DNA, the preferred saccharide binding sites do not coincide precisely with those observed for intact calicheamicin
3 | CCN[C@H]1CO[C@@H](O[C@H]2[C@H](OC)O[C@H](C)[C@H](NO[C@H]3C[C@H](O)[C@H](SC(=O)c4c(C)c(I)c(O[C@@H]5O[C@@H](C)[C@H](O)[C@@H](OC)[C@H]5O)c(OC)c4OC)[C@@H](C)O3)[C@@H]2O)C[C@@H]1OC [Compound 100a] |  | no protection at the same concentrations | 
4 | CCN[C@H]1CO[C@@H](O[C@H]2[C@H](OC)O[C@H](C)[C@@H](NO[C@H]3C[C@H](O)[C@H](SC(=O)c4c(C)cc(O[C@@H]5O[C@@H](C)[C@H](O)[C@@H](OC)[C@H]5O)c(OC)c4OC)[C@@H](C)O3)[C@@H]2O)C[C@@H]1OC [Compound 100b] |  | lack of protection under the same conditions | 
5 | esperamicin | no strong sequence specificity in DNA cleaving |  | sequence specificity of DNA cleaving (DNA; listed as Esperamicins): less sequence specific
